Tests used:
[1] = test system: B. bifidum DSM 20082; test: Fermentation by human bifidobacteria; format: cell-based; parameters: key: −: no decomposition; +: decomposition and metabolization of galactose from β-1,3-galactosyl isomalt; ++: decomposition and metabolization of galactose and glucose from β-1,3-galactosyl isomalt; +++: complete decomposition of β-1,3-galcatosyl isomalt; settings: medium 2, 48 h
Protocol: (§1) To investigate the prebiotic and bifidogenic properties of galactosyl isomalt, the growth of various human bifidobacteria was investigated on this substrate in vitro. An anaerobic medium of the following composition was used:
(§2) 22 strains of human bifidobacteria were first precultured in “Hungate” test tubes on the above medium 1, in which the source of carbohydrate had first been replaced by glucose (10 g/L). The strains were then inoculated onto medium 2, incubated for 48 h, and then the optical density (E578), the pH, the formation of acetate and lactate and the decrease of the β-1,3-galactosyl isomalt concentration were determined.
(§3) Various decomposition paths are distinguished with regard to the metabolization of galactosyl isomalt. Some strains degrade galactose from the substrate with a β-galactosidase and metabolize this monosaccharide (+).
(§4) Other strains additionally degrade glucose from the resulting isomalt, in addition to galactose, metabolize both monosaccharides, while this is not true for the resulting mannitol or sorbitol (++). The third group is capable of utilizing galactosyl isomalt as a substrate and also metabolizing mannitol and sorbitol (+++).

[2] = test system: B. pseudocatenulatum DSM 20439; test: Fermentation by human bifidobacteria; format: cell-based; parameters: key: −: no decomposition; +: decomposition and metabolization of galactose from β-1,3-galactosyl isomalt; ++: decomposition and metabolization of galactose and glucose from β-1,3-galactosyl isomalt; +++: complete decomposition of β-1,3-galcatosyl isomalt; settings: medium 2, 48 h
Protocol: as §1, §2, §3, §4

[3] = test system: B. gallicum DSM 20093; test: Fermentation by human bifidobacteria; format: cell-based; parameters: key: −: no decomposition; +: decomposition and metabolization of galactose from β-1,3-galactosyl isomalt; ++: decomposition and metabolization of galactose and glucose from β-1,3-galactosyl isomalt; +++: complete decomposition of β-1,3-galcatosyl isomalt; settings: medium 2, 48 h
Protocol: as §1, §2, §3, §4

[4] = test system: B. adolescentis DSM 20086; test: Fermentation by human bifidobacteria; format: cell-based; parameters: key: −: no decomposition; +: decomposition and metabolization of galactose from β-1,3-galactosyl isomalt; ++: decomposition and metabolization of galactose and glucose from β-1,3-galactosyl isomalt; +++: complete decomposition of β-1,3-galcatosyl isomalt; settings: medium 2, 48 h
Protocol: as §1, §2, §3, §4

[5] = test system: B. infantis DSM 20090; test: Fermentation by human bifidobacteria; format: cell-based; parameters: key: −: no decomposition; +: decomposition and metabolization of galactose from β-1,3-galactosyl isomalt; ++: decomposition and metabolization of galactose and glucose from β-1,3-galactosyl isomalt; +++: complete decomposition of β-1,3-galcatosyl isomalt; settings: medium 2, 48 h
Protocol: as §1, §2, §3, §4

[6] = test system: B. angulatum DSM 20098; test: Fermentation by human bifidobacteria; format: cell-based; parameters: key: −: no decomposition; +: decomposition and metabolization of galactose from β-1,3-galactosyl isomalt; ++: decomposition and metabolization of galactose and glucose from β-1,3-galactosyl isomalt; +++: complete decomposition of β-1,3-galcatosyl isomalt; settings: medium 2, 48 h
Protocol: as §1, §2, §3, §4

[7] = test system: B. breve DSM 20091; test: Fermentation by human bifidobacteria; format: cell-based; parameters: key: −: no decomposition; +: decomposition and metabolization of galactose from β-1,3-galactosyl isomalt; ++: decomposition and metabolization of galactose and glucose from β-1,3-galactosyl isomalt; +++: complete decomposition of β-1,3-galcatosyl isomalt; settings: medium 2, 48 h
Protocol: as §1, §2, §3, §4

[8] = test system: B. adolescentis DSM 20087; test: Fermentation by human bifidobacteria; format: cell-based; parameters: key: −: no decomposition; +: decomposition and metabolization of galactose from β-1,3-galactosyl isomalt; ++: decomposition and metabolization of galactose and glucose from β-1,3-galactosyl isomalt; +++: complete decomposition of β-1,3-galcatosyl isomalt; settings: medium 2, 48 h
Protocol: as §1, §2, §3, §4

[9] = test system: B. infantis DSM 20223; test: Fermentation by human bifidobacteria; format: cell-based; parameters: key: −: no decomposition; +: decomposition and metabolization of galactose from β-1,3-galactosyl isomalt; ++: decomposition and metabolization of galactose and glucose from β-1,3-galactosyl isomalt; +++: complete decomposition of β-1,3-galcatosyl isomalt; settings: medium 2, 48 h
Protocol: as §1, §2, §3, §4

[10] = test system: B. breve DSM 20213; test: Fermentation by human bifidobacteria; format: cell-based; parameters: key: −: no decomposition; +: decomposition and metabolization of galactose from β-1,3-galactosyl isomalt; ++: decomposition and metabolization of galactose and glucose from β-1,3-galactosyl isomalt; +++: complete decomposition of β-1,3-galcatosyl isomalt; settings: medium 2, 48 h
Protocol: as §1, §2, §3, §4

[11] = test system: B. bifidum DSM 20456; test: Fermentation by human bifidobacteria; format: cell-based; parameters: key: −: no decomposition; +: decomposition and metabolization of galactose from β-1,3-galactosyl isomalt; ++: decomposition and metabolization of galactose and glucose from β-1,3-galactosyl isomalt; +++: complete decomposition of β-1,3-galcatosyl isomalt; settings: medium 2, 48 h
Protocol: as §1, §2, §3, §4

[12] = test system: B. pseudocatenulatum DSM 20438; test: Fermentation by human bifidobacteria; format: cell-based; parameters: key: −: no decomposition; +: decomposition and metabolization of galactose from β-1,3-galactosyl isomalt; ++: decomposition and metabolization of galactose and glucose from β-1,3-galactosyl isomalt; +++: complete decomposition of β-1,3-galcatosyl isomalt; settings: medium 2, 48 h
Protocol: as §1, §2, §3, §4

[13] = test system: pancreatin enzyme (Sigma); test: Stability with respect to pancreatic enzymes; format: in vitro ADME; settings: 1% solution, 0.2% pancreatin, pH 7.0, 210 min at 37° C.
Protocol: The pancreatic secretion contains a large number of hydrolases, including carbohydrate-degrading enzymes like α-amylase, which breaks down α-1,4-glucans (starch, glycogen) preferably to maltose and maltooligosaccharides. The test of the stability of saccharides with respect to pancreatic enzymes is carried out as follows.
3.0 mL of a carbohydrate solution (solution 2 to solution 6) is mixed with 0.1 mL of the enzyme solution (solution 7) per batch:
Solution 1: 20 mmol/L Na phosphate buffer, pH 7.0, with 6 mmol/L NaCl
Solution 2: 1% solution of β-1,4-galactosyl isomalt mixture in accordance with the invention, prepared according to Example 2 and Example 4, in solution 1
Solution 3: 1% solution of β-1,3-galactosyl isomalt mixture in accordance with the invention, prepared according to Example 1 and Example 4, in solution 1
Solution 4: 1% solution of β-1,6-galactosyl isomalt mixture in accordance with the invention; prepared according to Example 3 and Example 4, in solution 1
Solution 6: 1% starch solution (soluble starch, according to Zulkowski), in solution 1
Solution 7: 0.2% pancreatin enzyme (Sigma), dissolved in solution 1
After 210 min incubation in a thermomixer (interval shaking) at 37° C., the reaction is stopped by heating to 95° C. for 15 min and the samples are analyzed by HPAEC. The starch-containing sample (solution6+solution 7) is completely hydrolyzed before the HPAEC analysis by heating for 3 h in 1 mol/L hydrochloric acid at 95° C., and the glucose resulting from this is determined in order to calculate the starch content of the sample.

## OCC1O[C@H](OC[C@@H](O)[C@@H](O)[C@H](O)C(O)CO)C(O)C(O[C@@H]2OC(CO)[C@H](O)C(O)C2O)[C@@H]1O (mixture of isomers) [β-1,3-Galactosyl isomalt, β-D-galactosyl-(1→3)-α-D-glucosyl-(1→6)-D-sorbitol(β-1,3-galactosyl-1,6-GPS) and β-D-galactosyl-(1→3)-α-D-glucosyl-(1→1)-D-mannitol(β-1,3-galactosyl-1,1-GPM)]
[1]
  Growth on β-1,3-galactosyl isomalt: +
[2]
  Growth on β-1,3-galactosyl isomalt: ++
[3]
  Growth on β-1,3-galactosyl isomalt: −
[4]
  Growth on β-1,3-galactosyl isomalt: +++
[5]
  Growth on β-1,3-galactosyl isomalt: ++
[6]
  Growth on β-1,3-galactosyl isomalt: ++
[7]
  Growth on β-1,3-galactosyl isomalt: +
[8]
  Growth on β-1,3-galactosyl isomalt: +++
[9]
  Growth on β-1,3-galactosyl isomalt: +++
[10]
  Growth on β-1,3-galactosyl isomalt: +
[11]
  Growth on β-1,3-galactosyl isomalt: −
[12]
  Growth on β-1,3-galactosyl isomalt: ++
[13]
  Decomposition rate [%]: <1%
